Assay results as given in BindingDB's records for doi:10.1016/j.ejmech.2016.11.024 (Guangxi Normal University, 2017).

Legend:
[1] = target: Proteasome subunit beta type-2 (Homo sapiens, UniProt P49721); assay: Inhibition of trypsin-like activity of human 20S proteasome using Bz-VGR-AMC as substrate by fluorometric method
[2] = target: T1, Proteasome subunit beta type-1 (Homo sapiens, UniProt P20618); assay: Inhibition of PGPH activity of human 20S proteasome using (Z)-LLE-bNA as substrate by fluorometric method
T1 sequence (P20618 whole entry): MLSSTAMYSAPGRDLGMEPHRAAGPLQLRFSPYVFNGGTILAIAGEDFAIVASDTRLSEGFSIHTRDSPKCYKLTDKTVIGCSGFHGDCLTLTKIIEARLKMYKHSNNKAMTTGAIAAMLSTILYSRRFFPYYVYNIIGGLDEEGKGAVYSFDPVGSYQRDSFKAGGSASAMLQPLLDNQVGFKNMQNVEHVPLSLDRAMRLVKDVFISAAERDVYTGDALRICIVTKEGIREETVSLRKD

Proteasome subunit beta type-2, sequence (P49721 whole entry): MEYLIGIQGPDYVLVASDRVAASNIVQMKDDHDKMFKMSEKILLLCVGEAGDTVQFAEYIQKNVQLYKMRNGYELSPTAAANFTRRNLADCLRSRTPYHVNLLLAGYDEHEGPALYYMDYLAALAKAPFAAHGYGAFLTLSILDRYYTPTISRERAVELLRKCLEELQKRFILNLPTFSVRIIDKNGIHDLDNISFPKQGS

IC50 [1] [µM]	IC50 [2] [µM]	SMILES
> 50	22.7	CC[C@H](C)[C@H](NC(=S)Nc1ccc(C(F)(F)F)cc1)C(=O)N[C@H](Cc1ccccc1)C(=O)Nc1cccc(Br)c1
–	35	CC[C@H](C)[C@H](NC(=S)Nc1cccc([N+](=O)[O-])c1)C(=O)N[C@H](Cc1ccccc1)C(=O)Nc1cccc(C(F)(F)F)c1
–	22.6	CC[C@H](C)[C@H](/N=C(/Nc1cccc(C(F)(F)F)c1)SC)C(=O)N[C@H](Cc1ccccc1)C(=O)Nc1cccc(C(F)(F)F)c1
